Measurements: ChEMBL document CHEMBL1136535, “Unexpected inhibition of S-adenosyl-L-homocysteine hydrolase by a guanosine nucleoside” (Bioorg Med Chem Lett, 2003)

Molecular target: Adenosylhomocysteinase (Homo sapiens) (UniProt P23526)
Test: Enzyme catalytic rate kinetic constant for S-adenosyl-L-homocysteine hydrolase; Not a substrate

Sequence of Adenosylhomocysteinase (Homo sapiens) (P23526 2-432 limits assumed): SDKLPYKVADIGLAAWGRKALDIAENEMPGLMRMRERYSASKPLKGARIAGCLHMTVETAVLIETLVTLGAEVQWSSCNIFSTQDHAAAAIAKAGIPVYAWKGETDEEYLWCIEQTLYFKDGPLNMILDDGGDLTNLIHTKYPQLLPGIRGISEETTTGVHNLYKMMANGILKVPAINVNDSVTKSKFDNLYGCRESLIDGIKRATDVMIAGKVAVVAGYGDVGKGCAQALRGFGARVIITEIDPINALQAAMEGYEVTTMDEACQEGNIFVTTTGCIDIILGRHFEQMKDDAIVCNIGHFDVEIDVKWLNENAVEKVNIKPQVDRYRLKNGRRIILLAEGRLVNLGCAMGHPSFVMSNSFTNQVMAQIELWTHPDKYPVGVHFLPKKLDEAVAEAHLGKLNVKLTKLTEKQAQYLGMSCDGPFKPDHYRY

k cat: Not a substrate
Structure (SMILES): Nc1nc(O)cc(-c2cncn2C2O[C@H](CO)[C@@H](O)[C@H]2O)n1 (stereo partly specified)
